Laboratory results: patent publication US20220030868A1, “FUNGICIDAL HALOMETHYL KETONES AND HYDRATES” (FMC CORPORATION, priority 2018, published 2022)

Tests used:
[1] = tested on: Puccinia recondita f. sp. tritici; experiment: Test B: test suspension sprayed on wheat seedlings one day before inoculation with Puccinia recondita f. sp. tritici spores (wheat leaf rust), disease rating; format: in vivo; settings: 100 = 100% disease control, 0 = no control
How it was run: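 Wheat seedlings were sprayed to run-off with compound suspended in 50/50 acetone/water containing 250 ppm PEG400, then inoculated with P. recondita f. sp. tritici spores the next day. Plants were held 24 h in saturated air at 20 °C, then 6 days in a growth chamber at 20 °C. Disease control was rated 0–100% relative to controls, with some entries run at 50 or 10 ppm.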

Phakopsora pachyrhizi = experiment: Test A: test suspension sprayed on soybean seedlings one day before inoculation with Phakopsora pachyrhizi spores (Asian soybean rust), visual disease rating; format: in vivo; settings: 100 = 100% disease control, 0 = no control; for pest or weed control at 50 ppm / pest or weed control at 10 ppm: Phakopsora pachyrhizi
How it was run: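 Compound dissolved in acetone (3% of final volume), then suspended at the stated ppm in 50/50 acetone/water with 250 ppm PEG400 surfactant; sprayed to run-off on soybean seedlings, inoculated with P. pachyrhizi spores next day. Held saturated at 22° C for 24 h, then 8 days at 22° C; visual rating as % disease control versus controls.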

SMILES	Test B rating (disease control) ([1]; 10 ppm test suspension) [%]	Test A rating (disease control) (Phakopsora pachyrhizi; 10 ppm test suspension) [%]	other results
CCOC(=O)c1csc(Cc2ccc(OCC3(C(F)(F)F)OCCO3)cc2)n1 [Compound 137]	0	79	–
CCOC(=O)c1cnn(Cc2ccc(OCC(O)(NO)C(F)(F)F)cc2)c1 (stereo not drawn) [Compound 10]	86	100	–
CCO/C(=C\Oc1ccc(Cn2cncn2)cc1)C(F)(F)F [Compound 157]	9	0	–
CCO/C(=C\Oc1ccc(Cn2ccc(C(=O)OC)n2)cc1)C(F)(F)F [compound 251]	9	100	–
CCOC(=O)c1cnn(Cc2cccc(O/C=C(\OCC)C(F)(F)F)c2F)c1 [compound 301]	–	–	pest or weed control at 50 ppm ([1]; 50 ppm test suspension): 0%; pest or weed control at 50 ppm (Phakopsora pachyrhizi; 50 ppm test suspension): 100%
C#CCO/C(=C\Oc1ccc(Cn2cc(C(=O)OCC)cn2)cc1)C(F)(F)F [compound 56]	0	38	–
CCOC(=O)c1cnn(Cc2cccc(OCC3(C(F)(F)F)OCCO3)c2)c1 [compound 146]	–	–	pest or weed control at 50 ppm ([1]; 50 ppm test suspension): 0%; pest or weed control at 50 ppm (Phakopsora pachyrhizi; 50 ppm test suspension): 60%
CSc1nccc(Cc2ccc(OCC3(C(F)(F)F)OCCO3)cc2)n1 [compound 281]	–	–	Test B rating (disease control) ([1]; 50 ppm test suspension): 98%; Test A rating (disease control) (Phakopsora pachyrhizi; 50 ppm test suspension): 95%
CCCCCCOC(=O)c1cnn(Cc2ccc(OCC(O)(O)C(F)(F)F)cc2)c1 [Compound 48]	–	–	Test B rating (disease control) ([1]; 50 ppm test suspension): 91%; Test A rating (disease control) (Phakopsora pachyrhizi; 50 ppm test suspension): 100%
CCO/C(=C\Oc1ccc(Cn2ncnc2SC)cc1)C(F)(F)F [Compound 260]	0	0	–
CCOC(=O)c1cnn(COCc2ccc(O/C=C(\OCC)C(F)(F)F)cc2)c1 [Compound 297, ethyl 1-[[4-[[(1Z)-2-ethoxy-3,3,3-trifluoro-1-propen-1-yl]oxy]phenylmethoxy]methyl]-1H-pyrazole-4-carboxylate]	–	–	pest or weed control at 10 ppm ([1]; 10 ppm test suspension): 0%; pest or weed control at 10 ppm (Phakopsora pachyrhizi; 10 ppm test suspension): 100%
CCS(=O)(=O)Cc1ccc(OCC2(C(F)(F)F)OCCO2)cc1 [compound 23]	19	0	–
CCCO/C(=C\Oc1cccc(Cn2cc(C(=O)OCC)cn2)c1)C(F)(F)F [compound 324]	0	0	–
O=C(NCC(F)(F)F)c1csc(Cc2ccc(OCC(O)(O)C(F)(F)F)cc2)n1 [Compound 68]	95	100	–
O=C(c1csc(Cc2ccc(OCC(O)(O)C(F)(F)F)cc2)n1)N1CCC(F)(F)C1 [Compound 135]	61	86	–
CCO/C(=C\Oc1ccc(CC#N)cc1)C(F)(F)F [compound 154]	0	0	–
CCOC(=COc1ccc(CC2CC(C(=O)N(C)C)=NO2)cc1)C(F)(F)F (mixture of isomers) [compound 288]	–	–	Test B rating (disease control) ([1]; 50 ppm test suspension): 0%; Test A rating (disease control) (Phakopsora pachyrhizi; 50 ppm test suspension): 96%
O=C(OCC(=O)C1CCCCC1)c1cnn(Cc2ccc(OCC3(C(F)(F)F)OCCO3)cc2)c1 [compound 202]	0	100	–
CCOC(=O)c1cnn(CCCc2ccc(OCC(O)(O)C(F)(F)F)cc2)c1 [Compound 286]	55	87	–
C=CC(F)(F)OC(=O)c1cnn(Cc2ccc(OCC(O)(O)C(F)(F)F)cc2)c1 [Compound 38]	89	97	–
OC(O)(COc1ccc(OCC(O)(O)C(F)(F)F)cc1)C(F)(F)F [Compound 2]	32	77	–
CCOC(=O)c1cnn(CCc2ccc(OCC(O)(O)C(F)(F)F)cc2)c1 [Compound 131]	–	–	Test B rating (disease control) ([1]; 50 ppm test suspension): 86%; Test A rating (disease control) (Phakopsora pachyrhizi; 50 ppm test suspension): 99%
CCOC(=O)c1ccn(Cc2ccc(OCC3(C(F)(F)F)OCCO3)cc2)n1 [compound 232]	0	98	–
CCCOC(=O)c1ccc(O/C=C(\OCC)C(F)(F)F)cc1 [compound 94]	0	0	–
CCOC(=O)c1cnn(Cc2ccc(O/C=C(\OCCO)C(F)(F)F)cc2)c1 [compound 145]	0	82	–
FC(F)(F)C1(COc2ccc(-c3ccccc3)cc2)OCCO1 [compound 190]	0	0	–
O=C(NCC1CC1)c1cnc(Cc2ccc(OCC(O)(O)C(F)(F)F)cc2)o1 [Compound 247]	0	13	–

SMILES	Test B rating (disease control) ([1]; 10 ppm test suspension) [%]	Test A rating (disease control) (Phakopsora pachyrhizi; 10 ppm test suspension) [%]	other results
CCCCOC(=O)c1cnn(Cc2cccc(O/C=C(\OCC)C(F)(F)F)c2)c1 [compound 339]	0	100	–
C=CCNC(=O)c1ccc(O/C=C(\OCC)C(F)(F)F)cc1 [compound 103]	0	0	–
CCO/C(=C\Oc1ccc(Cn2cc(C(F)(F)F)cn2)cc1)C(F)(F)F [compound 182]	0	0	–
CCOC(=O)c1cnn(Cc2ccc(OCC3(C(F)(F)F)OCCO3)nc2)c1 [compound 168]	–	–	pest or weed control at 10 ppm ([1]; 10 ppm test suspension): 0%; pest or weed control at 10 ppm (Phakopsora pachyrhizi; 10 ppm test suspension): 0%
CC(C)C(=O)NCc1ccc(OCC2(C(F)(F)F)OCCO2)cc1 [compound 175]	0	0	–
CCOCc1cnn(Cc2ccc(OCC3(C(F)(F)F)OCCO3)cc2)c1 [compound 240]	0	99	–
O=C(OCC(F)(F)F)c1cnn(Cc2ccc(OCC3(C(F)(F)F)OCCO3)cc2)c1 [compound 134]	32	89	–
CCOC(=O)C1=NOC(Cc2ccc(OC=C(OCC)C(F)(F)F)cc2)C1 (mixture of isomers) [compound 287]	–	–	Test B rating (disease control) ([1]; 50 ppm test suspension): 0%; Test A rating (disease control) (Phakopsora pachyrhizi; 50 ppm test suspension): 77%
N#Cc1ccc(OCC2(C(F)(F)F)OCCO2)cc1 [compound 98]	–	–	Test B rating (disease control) ([1]; 250 ppm test suspension): 100%; Test A rating (disease control) (Phakopsora pachyrhizi; 250 ppm test suspension): 100%
CCOC(=O)c1cnn(Cc2ccc(OCC3(C(F)(F)F)OC(=O)[C@@H](C)O3)cc2)c1 (stereo partly drawn) [Compound 187]	74	93	–
C#CCNC(=O)c1ccc(O/C=C(\OCC)C(F)(F)F)cc1 [compound 102]	0	0	–
CCO/C(=C\Oc1ccc(Cn2nccc2C(=O)OC(C)(C)C)cc1)C(F)(F)F [compound 252]	0	0	–
COC(=O)COC(=O)c1cnn(Cc2ccc(OCC3(C(F)(F)F)OCCO3)cc2)c1 [compound 203]	0	50	–
CCOC(=O)c1cnn(Cc2ccc(OCC(O)(O)C(F)(F)F)c(F)c2)c1 [compound 264]	–	–	pest or weed control at 10 ppm ([1]; 10 ppm test suspension): 80%; pest or weed control at 10 ppm (Phakopsora pachyrhizi; 10 ppm test suspension): 99%
CCOC(=O)c1cnn(Cc2ccc(CCC(O)(O)C(F)(F)F)cc2)c1 [Compound 66]	–	–	Test B rating (disease control) ([1]; 50 ppm test suspension): 89%; Test A rating (disease control) (Phakopsora pachyrhizi; 50 ppm test suspension): 92%
CCCCOC(=O)c1cnn(Cc2ccc(OCC3(C(F)(F)F)OCCO3)cc2)c1 [compound 125]	0	100	–
CCO/C(=C\Oc1ccc(Cn2cc(C(=O)OC(C)C)cn2)cc1)C(F)(F)F [compound 139]	0	100	–
FC(F)(F)C1(COc2ccc(Cc3ccccc3)cc2)OCCO1 [compound 192]	0	0	–
O=C(OCC1CCCCC1)c1cnn(Cc2ccc(OCC3(C(F)(F)F)OCCO3)cc2)c1 [compound 272]	0	100	–
O=C(OC1CCC1)c1cnn(Cc2ccc(OCC3(C(F)(F)F)OCCO3)cc2)c1 [compound 318]	0	100	–
CCO/C(=C\Oc1ccc(CSC#N)cc1)C(F)(F)F [compound 155]	0	0	–
CCOC(=COc1ccc(CN2CCC(C(=O)OC)C2)cc1)C(F)(F)F (mixture of isomers) [compound 310]	0	100	–
CCCOC(=O)c1cnn(Cc2ccc(OCC(O)(O)C(F)(F)F)cc2)c1 [Compound 42]	85	99	–
COC(=O)c1ccc(OCC(O)(O)C(F)(F)F)cc1 [Compound 229, methyl 4-(3,3,3-trifluoro-2,2-dihydroxypropoxy)phenylcarboxylate]	–	–	pest or weed control at 50 ppm ([1]; 50 ppm test suspension): 100%; pest or weed control at 50 ppm (Phakopsora pachyrhizi; 50 ppm test suspension): 99%
CCO/C(=C\Oc1ccc(Cn2ccc(C(=O)O)n2)cc1)C(F)(F)F [compound 299]	0	100	–
CCO/C(=C\Oc1ccc(Cn2cc(C(=O)NCC#N)cn2)cc1)C(F)(F)F [compound 107]	0	0	–
CCO/C(=C\Oc1ccc(Cn2cc(Br)cn2)cc1)C(F)(F)F [compound 183]	0	0	–
